Reference: patent US20260297542A1, “HERBICIDE RESISTANT PLANTS” (SYNGENTA CROP PROTECTION AG, priority 2023, published 2026)
Values joined by “and” are separate entries in the source; they are usually repeats but may differ in a detail not shown here. Identical values can stand only once. Like-named read-outs stand apart in the source and are kept apart here.

Assays:
[1] = target: T1, His-TEV-AtPP01 ΔcTP (SEQ ID NO: 370) (Arabidopsis thaliana, UniProt P55826); assay: PPO fluorescence IC50 assay, partially purified enzyme; type: biochemical
T1 construct: with cTPs removed; made in house; host or cells: E. coli BL21 (DE3), His GraviTrap, partially purified
T1 sequence (P55826 with tags, fused parts or gaps): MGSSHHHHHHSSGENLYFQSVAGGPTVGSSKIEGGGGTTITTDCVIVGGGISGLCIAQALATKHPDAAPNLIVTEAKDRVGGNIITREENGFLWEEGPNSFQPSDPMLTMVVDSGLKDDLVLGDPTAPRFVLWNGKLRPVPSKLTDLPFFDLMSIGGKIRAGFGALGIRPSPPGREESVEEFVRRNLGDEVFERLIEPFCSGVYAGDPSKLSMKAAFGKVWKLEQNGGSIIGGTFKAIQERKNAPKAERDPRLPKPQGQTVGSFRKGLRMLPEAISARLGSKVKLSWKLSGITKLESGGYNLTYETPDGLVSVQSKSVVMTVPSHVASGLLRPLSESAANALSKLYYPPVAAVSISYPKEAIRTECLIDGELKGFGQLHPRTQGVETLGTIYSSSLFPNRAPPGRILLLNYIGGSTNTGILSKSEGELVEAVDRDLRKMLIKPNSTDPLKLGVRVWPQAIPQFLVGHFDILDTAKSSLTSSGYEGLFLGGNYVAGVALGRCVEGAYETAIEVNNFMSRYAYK
Source text: A pET24 plasmid containing a DNA sequence encoding variants of AtPPO1 derived from Arabidopsis thaliana with cTPs removed and both a 6×His tag and TEV protease cleavage tag added at the N-terminus, codon-optimised for expression in E. coli, and under control of a T7 promoter, was synthesised by Twist Bioscience. The following variants were synthesised: WT AtPPO1 (SEQ ID NO: 370), AtPPO1 L479M (SEQ ID NO: 371), AtPPO1 L479N (SEQ ID NO: 372), AtPPO1 S305L Y426V (SEQ ID NO: 374) and AtPPO1 S305L Y426V L479M (SEQ ID NO: 373). This plasmid was expressed in E. coli BL21 (DE3) with 50 μg/mL kanamycin selection. 10 mL of overnight cultures grown at 37° C. were used to inoculate 1 L AIM (AIM-Terrific Broth Base including Trace elements, Formedium) in 2 L shake flasks. Cultures were grown at 37° C., 200 rpm for 3 hours and then overnight at 26° C. Cells were harvested centrifugation. 5-15 g of cell pellet was lysed in and resuspended in ratio of 1:1.5 in lysis buffer (20 mM Tris pH8, 500 mM sodium chloride, 10% glycerol, 1× complete Protease EDTA-free Inhibitor Tablet (Roche), 10 mM imidazole). The resuspension was sonicated at 75% using 10 cycles of 30 seconds, 40 seconds off. After sonication Triton X-100 was added to the lysates at a final concentration of 0.5%. The lysates were centrifuged at 20,000 rpm for 25 min at 4° C. Cleared lysates were loaded on His GraviTrap (Cytiva) columns, washed with 20 mL of lysis buffer and eluted in elution buffer (20 mM Tris pH8, 500 mM sodium chloride, 10% glycerol, 200 mM imidazole, 0.03% (v/v) Triton X-100). The eluate was desalted on a PD10 column and 2.5-3.2 mL was collected. Protein concentration was measured and calculated using the absorbance at 280 nm. Extracts were diluted 1 in 4 and 10 uL was analysed by SDS PAGE.
Partially purified Protoporphyrinogen Oxidase enzymes were assayed for activity using fluorescence adapted from the method of Shepherd & Dailey (Anal Biochem. 2005 344(1) 115-121). The assay was performed in black 384 well plates with a clear bottom and the total volume of the reaction mixture was 91 ul. The final assay mixture contained 100 mM K2HPO4 pH7.2, 1 mM Na2EDTA, 5 mM DTT, 20% glycerol (v/v), 0.05% Tween 20 (v/v), 1.1% DMSO (v/v), 1 uM protoporphyrinogen IX and 1.5 nM enzyme. Compounds were dissolved in DMSO at 1 mM and a 4-fold serial dilution carried out to give 8 rates. 1 ul was added to the assay mixture. This gave final compound concentrations of 11, 2.7, 0.69, 0.17, 0.04, 0.01, 0.002, 0.0007 uM. Enzyme and inhibitor were preincubated for 5 minutes prior to starting the reaction with the addition of the substrate. […] IC50s were calculated using GraphPad Prism 7.05 nonlinear regression (Table 6). Each compound was tested in duplicate.

[2] = system: tobacco plants containing pBin TMV AtPPO1; assay: herbicide damage to transgenic tobacco; type: in vivo; conditions: 120 g ai/ha, per transgenic event, 0 no visible damage, 100 complete death
Source text: Populations of transgenic tobacco comprising 20-30 transgenic events per plant transformation constructs are generated as described in Example 4. These lines were clonally propagated and 1 clone per event was sprayed with PPO herbicides to confirm the herbicide resistance.
(§1) Herbicidal damage is visually assessed across the population and a herbicide damage score given at 7 and 14 days. A score of 0 indicates no visible damage or stunting whereas a score of 100 indicates a complete death of the plant. 20 transgenic events (i.e. individual transgenic plants) from each GM tobacco line are transplanted to soil 1 week prior to spraying with PPO inhibiting compounds. WT tobacco is included as a control.
as §1, with “damage was” for “damage is”, “line were” for “line are”

[3] = system: Wildtype Samsun tobacco; assay: herbicide damage to wild-type tobacco; type: in vivo; conditions: 120 g ai/ha, 0 no visible damage, 100 complete death
Source text: as §1
as §1, with “damage was” for “damage is”, “line were” for “line are”
The wild-type Samsun plants show significant damage at the day 7 and 14 assessment time.

Question: Which IC50 [1] does the source give for `C#CCN1C(=O)COc2cc(F)c(N3C(=O)C4=C(CCCC4)C3=O)cc21` [Flumioxazin, flumioxazin] here?
Answer: Its IC50 is 0.8 nM.

Question: With `CC(C)Oc1cc(-n2nc(C(C)(C)C)oc2=O)c(Cl)cc1Cl` [Oxadiazaon] as the compound, how does the IC50 [1] read?
Answer: The IC50 was 19 nM.

Question: With `CC(C)N(C)S(=O)(=O)NC(=O)c1cc(-n2c(=O)cc(C(F)(F)F)n(C)c2=O)c(F)cc1Cl` [Herbicide E, saflufenacil] as the compound, how does the IC50 [1] read?
Answer: The IC50 was 2.1 nM.

Question: Which IC50 [1] does the source give for `C#CCN1C(=O)C(F)(F)Oc2cc(F)c(-n3c(=O)n(C)c(=S)n(C)c3=O)cc21` [Herbicide B, trifludimoxazin] here?
Answer: Its IC50 is 0.7 nM.

Question: And the percentage of damage ([2]; 7 DAT)?
Answer: The percentage of damage was 100% and 99% and 87% and 97%.

Question: And the percentage of damage ([2]; 14 DAT)?
Answer: Its percentage of damage is 100% and 80% and 98% and 99%.

Question: What about the percentage of damage ([3]; 7 DAT) of the same compound?
Answer: Its percentage of damage is 100%.

Question: And the percentage of damage ([3]; 14 DAT)?
Answer: Its percentage of damage is 100%.

Question: How did the IC50 [1] turn out when `CS(=O)(=O)NC(=O)c1cc(Oc2ccc(C(F)(F)F)cc2Cl)ccc1[N+](=O)[O-]` [Fomesafen, fomesafen] was run?
Answer: Its IC50 is 1.8 nM.

Question: Which IC50 [1] does the source give for `CCOC(=O)COc1ncccc1Oc1cc(-n2c(=O)cc(C(F)(F)F)n(C)c2=O)c(F)cc1Cl` [Herbicide A, epyrifenacil] here?
Answer: Its IC50 is 0.7 nM.

Question: How did the IC50 [1] turn out when `CCOC(=O)COc1cc(-c2nn(C)c(OC(F)F)c2Cl)c(F)cc1Cl` [Pyraflufen-ethyl, pyraflufen-ethyl] was run?
Answer: The IC50 was 0.6 nM.

Question: Which results are given for `CCOC(=O)C1(C)CC(c2cc(-n3c(=O)cc(C(F)(F)F)n(C)c3=O)c(F)cc2Cl)=NO1` (stereo not drawn) [Herbicide C, 3-(2-chloro-4-fluoro-5-(3-methyl-2,6-dioxo-4-trifluoromethyl-3,6-dihydropyrimidin-1(2H)-yl)phenyl)-5-methyl-4,5-dihydroisoxazole-5-carboxylic acid ethyl ester]?
Answer: IC50 [1]: 0.7 nM; percentage of damage ([2]; 7 DAT): 100% and 95% and 94% and 97%; percentage of damage ([2]; 14 DAT): 100% and 90% and 95% and 97% and 99%; percentage of damage ([3]; 7 DAT): 100%; percentage of damage ([3]; 14 DAT): 100%

Question: `COC(=O)C(C)ON=Cc1cc(-n2c(=O)cc(C(F)(F)F)n(C)c2=O)c(F)cc1Cl` (stereo not drawn) [Flufenoximacil, flufenoximacil] was tested. Which IC50 ([1]; role: inhibitor, 1 uM protoporphyrinogen IX, <1.0 is below detection limit of assay) did it give?
Answer: Its IC50 is 0.6 nM.

Question: What does the source list for `CCOC(=O)[C@]1(C)CC(c2cc(-n3c(=O)n(C)c(=S)n(C)c3=O)c(F)cc2Cl)=NO1` [Herbicide D, ethyl (5S)-3-[2-chloro-5-(3,5-dimethyl-2,6-dioxo-4-thioxo-1,3,5-triazinan-1-yl)-4-fluoro-phenyl]-5-methyl-4H-isoxazole-5-carboxylate]?
Answer: percentage of damage ([2]; 7 DAT): 100% and 95% and 99% and 97% and 65% and 92% and 98%; percentage of damage ([2]; 14 DAT): 100% and 95% and 99% and 75% and 97% and 96%; percentage of damage ([3]; 7 DAT): 98% and 100%; percentage of damage ([3]; 14 DAT): 100%

Question: How did the IC50 [1] turn out when `C#CCN(C)c1c(C#N)cnn1-c1nn2c(c1Cl)CCCC2` [Pyraclonil] was run?
Answer: Its IC50 is 2.5 nM.

Question: `C=CCOC(=O)C(C)(C)OC(=O)c1cc(-n2c(=O)cc(C(F)(F)F)n(C)c2=O)ccc1Cl` [Butafenacil, butafenacil] was tested. Which IC50 [1] did it give?
Answer: The IC50 was 0.6 nM.

Question: `C#CCOc1cc(-n2nc3n(c2=O)CCCC3)c(Cl)cc1Cl` [Azafenadin] was tested. Which IC50 [1] did it give?
Answer: Its IC50 is 0.8 nM.
